Results on 6 compounds are retold here after patent publication US8106035B2, “25-SO2-substituted analogs of 1μ,25-dihydroxyvitamin D3” (Cytochroma Inc., priority 2002, dated 2012).

Structures are written as SMILES.

One test concerns the target T1, CYP24 (Homo sapiens, UniProt Q07973).
T1 sequence (Q07973 36-514): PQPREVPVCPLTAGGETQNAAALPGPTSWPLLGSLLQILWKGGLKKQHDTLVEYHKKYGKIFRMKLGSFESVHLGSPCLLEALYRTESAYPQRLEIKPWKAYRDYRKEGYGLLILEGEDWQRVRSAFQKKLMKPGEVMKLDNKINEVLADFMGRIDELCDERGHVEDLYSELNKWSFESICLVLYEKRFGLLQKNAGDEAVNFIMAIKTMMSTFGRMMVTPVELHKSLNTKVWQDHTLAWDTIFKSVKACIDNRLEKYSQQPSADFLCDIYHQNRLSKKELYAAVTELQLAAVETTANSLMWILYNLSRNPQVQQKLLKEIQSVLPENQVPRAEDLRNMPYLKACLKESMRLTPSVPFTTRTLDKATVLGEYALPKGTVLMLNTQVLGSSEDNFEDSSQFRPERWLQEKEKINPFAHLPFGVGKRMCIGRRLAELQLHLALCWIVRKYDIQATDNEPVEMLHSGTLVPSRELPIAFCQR
The experiment in a line: In vitro test for selective inhibition of CYP24 (standard protocol, ketoconazole control). The following applies: in comparison to CYP27A1 and CYP27B1. It is filed as biochemical. The protocol:
Selectively inhibiting the cytochrome P450 enzymatic pathway, through which 1α,25-dihydroxyvitamin D3 is catabolized (mainly via C-24 hydroxylation), is one important way to prolong the lifetime of this hormone, or analogs thereof. Therefore, the compounds of Formula I were tested in vitro, using a standard protocol, for their ability to inhibit specifically CYP24, an enzyme responsible for 24-hydroxylation of 1α,25-dihydroxyvitamin D3. Antimycotic ketoconazole, a drug used clinically for chemotherapy of human prostate cancer (Trachtenberg, J. et al. J. Urol. 1984, J32, 61-63), was used as a control standard for inhibition of CYP24.

Test [1] can be described thus: Antiproliferative activity of the compound of Formula VI (test not specified). Format: cell-based. Conditions: present invention. From the text:
The preparation of the compound of Formula VI was previously reported (Wang, Q. PhD Thesis, 2000, Johns Hopkins University). The ability of the compound of Formula VI to selectively modulate CYP24 activity has not been reported. […] Accordingly, the present invention is the first to find that the compound of Formula VI is useful in the methods of the invention.

The test system of the next test is SCC-25 cells. The experiment in a line: [3H]-thymidine proliferation assay with SCC-25 cells. It is filed as cell-based. Conditions: together with calcitriol; 1, 10, 50 nM compound; three days. The protocol:
SCC-25 cells were treated with specified concentrations of calcitriol and compound Va for three days. Cells were then incubated with [^3H]-thymidine for 6 h at 37° C. in a humidified atmosphere containing 5% CO2. Plates were harvested and radioactivity measured. Dose response curves in the absence of Va, 1 nM Va, 10 nM Va and 50 nM Va are shown.
[^3H]-thymidine Proliferation Assay with SCC-25 Cells
• 1. Preparation of cell suspension • When SCC-25 cells are 70-80% confluent, aspirate media. Wash the cells with 1×PBS. Trypsinize with trypsin-EDTA from the plate, collect cells from the tissue culture flask, centrifuged (500×g, 5 min) and resuspended in media. • 2. Cell plating. • Count the cells and adjust the cell density to 10,000/ml. Add 200 μl per well in a 96 well plate. Incubate plate for 24 h at 37° C. in a humidified atmosphere plus 5% CO2. Aspirate used media and replace with 150 μl per well with media. • 3. Compound addition. • Add 25 μl of 1α,25(OH)2D3 (final concentration 10^−6 M, 10^−7 M, 10^−8 M, 10^−9 M, 10^−10 M, 10^−11 M) into each designated well. Add 25 μL of Substrate (final concentration 10^−7 M, 5×10^−8 M, 10^−8 M or 10^−9 M) into each designated well. Incubate plates for 3 days at 37° C. in a humidified atmosphere plus 5% CO2. • 4. ^3H-Thymidine incorporation. • Add ^3H-thymidine at 0.02 μCi per well and incubate at 37° C. in a humidified atmosphere plus 5% CO2 for 6 h. • 5. Plate Harvesting. • Aspirate all media and wash cells with 1×PBS. Trypsinize cells for 30 min at 37° C. in a humidified atmosphere plus 5% CO2. Harvest cells onto a 96 well filter plate (Millipore) using a Tomtec Cell Harvestor, according to manufacturers instructions. • 6. Scintillation Counting. • Add 25 μl of scintillation fluid per well. Count the plate using a scintillation counter. Results: See FIGS. 10-13.

Test [2] deals with normal human epidermal keratinocytes (NHEK). Kind of test: Human epidermal keratinocyte proliferation (HEK) assay, [3H]-thymidine. Format: cell-based. The following applies: together with calcitriol; 1, 10, 50 nM compound; three days. The method, then:
NHEK were treated with specified concentrations of calcitriol and compound Va for three days. Cells were then incubated with [^3H]-thymidine for 18 h at 37° C. in a humidified atmosphere containing 5% CO2. Plates were harvested and radioactivity measured. Dose response curves in the absence of Va, 1 nM Va, 10 nM Va and 50 nM Va are shown.
Human Epidermal Keratinocyte Proliferation (HEK) Assay
• 1. HEK cell media • Supplement KGM media with additional reagents provided in the bullet kit as per supplier's instructions. • Add calcium chloride to final concentration of 0.3 mM. • 2. Calcitriol dilutions
(iii) Procedure: • 2. Cell culture • Thaw one vial of HEK cells containing at least 500 K, and divide into 5 25 cm^2 flasks with 5 ml HEK cell media. 24 h later, remove media and replenish with 5 ml fresh media. Change media again 48 h later. • 3. Preparation of cell suspension • On the day of the assay, wash the monolayer of HEK cells once with 1×PBS buffer (provided in reagent pack) and then trypsinize for 5 min at 37° C. Add trypsin neutralizing solution (provided in reagent pack). Collect cells into tube, centrifuge cells (500×g, 5 min) and resuspend in HEK cell media. Count cells and adjust density to 150,000 cells/ml. Dilute cells further 1:30 with HEK cell media. • 2. Cell plating • Add 150 μl of cell suspension to appropriately labelled wells of a 96-well plate. Incubate plate for 48 h at 37° C. in a humidified atmosphere containing 5% CO2 for adherence of cells to wells. • 3. Compound addition • Add 25 μl of calcitriol (10^−6 to 10^−11 M, final) and add 25 μl of substrate (10^−7 to 10^−10 M, final) and incubate for 32 hours at 37° C. in a humidified atmosphere containing 5% CO2. • 4. Cell harvesting and counting • Add 0.2 μCi/well of [^3H]-thymidine in 20 μl of HEK cell media to each well. Incubate plates for 18 h at 37° C. in a humidified atmosphere containing 5% CO2. Aspirate media and wash with 1×PBS. Trypsinize cells for 30 min at 37° C. in a humidified atmosphere containing 5% CO2. Harvest cells onto filter plates using Tomtec cell harvester as per manufacturer's instructions. Add 25 μl scintillation fluid per well. Measure radioactivity using a scintillation counter. All values were normalized for background. Results; See FIGS. 1-4

For another test, the system named is MCF-7 cells. Kind of test: [3H]-thymidine proliferation assay with MCF-7 cells. It is filed as cell-based. Conditions: together with calcitriol; 1, 10, 50 nM compound; three days. The protocol: MCF-7 cells were treated with specified concentrations of calcitriol and compound Va for three days. Cells were then incubated with [^3H]-thymidine for 6 h at 37° C. in a humidified atmosphere containing 5% CO2. Plates were harvested and radioactivity measured. Dose response curves in the absence of Va, 1 nM Va, 10 nM Va and 50 nM Va are shown.
[^3H]-thymidine Proliferation Assay with MCF-7 Cells
• 1. Preparation of cell suspension • When MCF-7 cells are 70-80% confluent, aspirate growth media. Wash the cells with 1×PBS. Trypsinize with trypsin-EDTA from the plate, collect cells from the tissue culture flask, centrifuged (500×g, 5 min) and resuspended in growth media. • 2. Cell plating. • Count the cells and adjust the cell density to 25, 000/ml. Add 200 μl per well in a 96 well plate. Incubate plate for 24 h at 37° C. in a humidified atmosphere plus 5% CO2. Aspirate used media and replace with […] per well with proliferation media. • 3. Substrate addition. • Add 25 μl of 1α,25(OH)2D3 (final concentration 10^−6 M, 10^−7 M, 10^−8 M, 10^−9 M, 10^−10 M, 10^−11 M) into each designated well. Add 25 μl of Substrate (final concentration 10^−7 M, 5×10^−8 M, 10^−8 M or 10^−9 M) into each designated well. Incubate plates for 3 days at 37° C. in a humidified atmosphere plus 5% CO2. • 4. ^3H-Thymidine incorporation. • Add ^3H-thymidine at 0.02 μCi per well and incubate at 37° C. in a humidified atmosphere plus 5% CO2 for 6 h. • 5. Plate Harvesting. • Aspirate all media and wash cells with 1×PBS. Trypsinize cells for 30 min at 37° C. in a humidified atmosphere plus 5% CO2. Harvest cells onto a 96 well filter plate (Millipore) using a Tomtec Cell Harvestor, according to manufacturers instructions. • 6. Scintillation Counting. • Add 25 μt of scintillation fluid per well. Count the plate using a scintillation counter. Results: See FIGS. 5-9.

With `C=C1/C(=C\C=C2/CCCC3(C)C(C(C)CCC4(S(=O)(=O)C(C)(C)C)CC4)=CCC23)CC(O)CC1O` (centres unmarked) [Formula VI], the “selective inhibition of CYP24 activity” value at CYP24 was “shows selective inhibition of CYP24 activity”. Further, the antiproliferative activity entry in test [1] is reported as “does have antiproliferative activity”.

Consider `C=C1/C(=C\C=C2/CCC[C@@]3(C)C2CC[C@@H]3[C@H](C)CCC2(S(=O)(=O)C(C)(C)C)CC2)C[C@@H](O)C[C@@H]1O` (some centres unmarked) [IIa], for which, in the test with SCC-25 cells, the “inhibition of SCC-25 cells ([3H]-thymidine incorporation)” value (“inhibition of SCC-25 cells” for short) is reported as “act to inhibit SCC-25 cells”. Moreover, the “inhibition of NHEK ([3H]-thymidine incorporation)” value (“inhibition of NHEK” for short) in test [2] is “act to inhibit normal human epidermal keratinocytes”.

Consider `C=C1/C(=C\C=C2/CCC[C@]3(C)C([C@H](C)CCC(C)(C)S(=O)(=O)C(C)(C)C)=CCC23)C[C@@H](O)C[C@@H]1O` (some centres unmarked) [IVa, 16-ene-24-dimethyl-25-SO2-TB1], for which the “inhibition of SCC-25 cells” value with SCC-25 cells was “act to inhibit SCC-25 cells”. The “inhibition of MCF-7 cells ([3H]-thymidine incorporation)” value (“inhibition of MCF-7 cells” for short) in the test with MCF-7 cells is “act to inhibit MCF-7 cells”. In test [2], the “inhibition of NHEK” value is “act to inhibit normal human epidermal keratinocytes”.

Turning to `C[C@H](C/C=C(\F)S(=O)(=O)C(C)(C)C)C1=CC[C@H]2/C(=C/C=C3C[C@@H](O)C[C@H](O)C3)CCC[C@]12C` [Ia(xi)], in the test on MCF-7 cells, the “inhibition of MCF-7 cells” value is listed as “act to inhibit MCF-7 cells”.

As for `C=C1/C(=C\C=C2/CCC[C@]3(C)C([C@H](C)C/C=C(/F)S(=O)(=O)C(C)(C)C)=CC[C@@H]23)C[C@@H](O)C[C@@H]1O` [Ib(v)], in the test on SCC-25 cells, the “inhibition of SCC-25 cells” value is recorded as “act to inhibit SCC-25 cells”. In addition, the “inhibition of MCF-7 cells” value in the test on MCF-7 cells is “act to inhibit MCF-7 cells”. In test [2], the “inhibition of NHEK” value is reported as “act to inhibit normal human epidermal keratinocytes”.

Take `C=C1/C(=C\C=C2/CCC[C@]3(C)[C@@H]([C@H](C)CCCS(=O)(=O)c4ccc(F)cc4)CC[C@@H]23)C[C@@H](O)C[C@@H]1O` [Va]: in the test with SCC-25 cells, the “inhibition of SCC-25 cells” value was “act to inhibit SCC-25 cells”. Also, in the test with MCF-7 cells, the “inhibition of MCF-7 cells” value is on record as “act to inhibit MCF-7 cells”. The “inhibition of NHEK” value in test [2] is “act to inhibit normal human epidermal keratinocytes”.
